# Measured values published in patent publication US5391540A, “Substituted pyridine compounds” (Rohm and Haas Company, priority 1993, dated 1995).
# Values joined by “and” are separate entries in the source; they are usually repeats but may differ in a detail not shown here. Equal entries are not always repeated.
# Experiments:
# Format in all cases: in vivo
# Cobu = assay: plant injury after spraying emerged plants (Table D); parameters: scale not given here
# Summary of the method: (§1)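 Seeds or vegetative propagules of annual and perennial species were pressed into steam-sterilized silt loam, covered with 1.27 cm of topsoil/peat-moss/vermiculite mix, and grown on greenhouse benches with subirrigation. Injury was scored on emerged plants after spraying.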
# Corn = assay: as above; parameters: scale not given here
# Summary of the method: as §1
# Hese = assay: as above; parameters: scale not given here
# Summary of the method: as §1
# Vele = assay: as above; parameters: scale not given here
# Summary of the method: as §1
# Wibw = assay: as above; parameters: scale not given here
# Summary of the method: as §1
# Cotz = assay: as above; parameters: scale not given here
# Source text: (§2) Topsoil (silt loam) is sieved through a screen having 1.27 cm openings. In some of the tests the soil was mixed with fertilizer (1225 g/cu. m of 12/5/9 containing isobutylidene diurea), while in other tests the fertilizer was omitted. This mixture is steam sterilized and then placed in aluminum pans 6.985 cm deep having ten holes in the bottom each 0.635 cm in diameter. The soil mixture is compacted to a depth of 1.27 cm. from the top of the pan. A predetermined number of seeds of each of several dicotyledonous and monocotyledonous annual plant species and/or vegetative propagules for the perennial plant species are placed on the soil and pressed into the soil surface. The seeds and/or vegetative propagules are covered with 1.27 cm of a mixture of 50% topsoil and 50% of a mixture of Canadian sphagnum peat moss, vermiculite and a wetting agent. The pans are then placed on a capillary mat on a greenhouse bench and subirrigated as needed. After the plants reach the desired stage (9 to 14 days, 1 to 3 true leaf stage), each pan (except the control pans) is removed to a spraying chamber and sprayed by means of an atomizer, operating at a spray pressure of 170.3 kPa ([…]) at the application rates noted in Table D. In the spray solution is an amount of an emulsifying agent mixture (35% butylamine salt of dodecylbenzenesulfonic acid and 65% tall oil condensed with ethylene oxide in the ratio of 11 mols of ethylene oxide/mol of tall oil) to give a spray solution or suspension. The spray solution or suspension contains a sufficient amount of the candidate chemical in order to give application rates of the active ingredient corresponding to those shown in Table D below while applying a total amount of solution or suspension equivalent to 1870 L/Ha (200 gallons/acre). The pans are returned to the greenhouse and watered as before and the injury to the plants as compared to the control pans is observed at approximately 10-14 days (usually 11 days).
# (§3) In the following Table D the legends used to identify the plant species are the same as those used in the preceding Table B.
# Jiwe = assay: as above; parameters: scale not given here
# Source text: as §2, §3
# Rape = assay: as above; parameters: scale not given here
# Source text: as §2, §3
# Annual Bluegrass = assay: Pre-emergent herbicidal activity (Table A); conditions: pre-emergence, Anbg, 11.2 kg/ha, 10-14 days, read-out: herbicidal rating (% inhibition)
# Summary of the method: (§4)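 Compound incorporated into the cover-soil layer over sown seed at a rate equivalent to 11.2 kg/ha (acetone or water carrier). Greenhouse growth with watering as needed; ratings reflect percent inhibition per species, recorded around day 11 (range 10–14).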
# Indian Mustard = assay: Pre-emergent herbicidal activity (Table A); conditions: Brassica juncea, pre-emergence, Inmu, 11.2 kg/ha, 10-14 days, read-out: herbicidal rating (% inhibition)
# Summary of the method: as §4
# Seedling Johnsongrass = assay: Pre-emergent herbicidal activity (Table A); conditions: Sorghum halepense, pre-emergence, Sejg, 11.2 kg/ha, 10-14 days, read-out: herbicidal rating (% inhibition)
# Summary of the method: as §4
# Wild Buckwheat = assay: Pre-emergent herbicidal activity (Table A); conditions: Fallopia convolvulus, pre-emergence, Wibw, 11.2 kg/ha, 10-14 days, read-out: herbicidal rating (% inhibition)
# Summary of the method: as §4
SMILES,"plant injury rating, Cobu (Cobu; 0.0701 kg/ha)","plant injury rating, Cobu (Cobu; 0.2803 kg/ha)","plant injury rating, Cobu (Cobu; 1.1210 kg/ha)","plant injury rating, Cobu (Cobu; 5.3808 kg/ha)","plant injury rating, Corn (Corn; 0.0701 kg/ha)","plant injury rating, Corn (Corn; 0.2803 kg/ha)","plant injury rating, Corn (Corn; 1.1210 kg/ha)","plant injury rating, Hese (Hese; 0.0701 kg/ha)","plant injury rating, Hese (Hese; 0.2803 kg/ha)","plant injury rating, Hese (Hese; 1.1210 kg/ha)","plant injury rating, Vele (Vele; 0.0701 kg/ha)","plant injury rating, Vele (Vele; 0.2803 kg/ha)","plant injury rating, Vele (Vele; 1.1210 kg/ha)","plant injury rating, Wibw (Wibw; 0.0701 kg/ha)","plant injury rating, Wibw (Wibw; 0.2803 kg/ha)","plant injury rating, Cotz (Cotz; 0.0701 kg/ha)","plant injury rating, Jiwe (Jiwe; 0.0701 kg/ha)","plant injury rating, Jiwe (Jiwe; 0.2803 kg/ha)","plant injury rating, Jiwe (Jiwe; 1.1210 kg/ha)","plant injury rating, Rape (Rape; 1.1210 kg/ha)",further results
"COC(=O)c1c(O)nc(C(F)(F)F)c(C(=O)OC)c1CC(C)C [Compound 1, 3,5-pyridinedicarboxylic acid, 2-hydroxy-4-(2-methylpropyl)-6-(trifluoromethyl)-, dimethyl ester]",0,0,0,4,0,0,2,1,2,2,1,2,2,0,1,0,0,2 and 1,2,–,"plant injury rating, Corn (Corn; 5.3808 kg/ha): 2; plant injury rating, Wibw (Wibw; 1.1210 kg/ha): 2; plant injury rating, Jiwe (Jiwe; 5.3808 kg/ha): 4 and 3; plant injury rating, Rape (Rape; 0.0701 kg/ha): 1"
"COC(=O)c1c(OC)nc(C(F)(F)F)c(C2=NCCS2)c1CC(C)C [Compound 50, 3-pyridinecarboxylic acid, 5-(4,5-dihydro-2-thiazolyl)-2-methoxy-4-(2-methylpropyl)-6-(trifluoromethyl)-, methyl ester]",0,1,2,3,0,0,–,2,–,–,2,–,–,1,3,1,2,2,2 and 3,3,"plant injury rating, Hese (Hese; 5.3808 kg/ha): 3; plant injury rating, Vele (Vele; 5.3808 kg/ha): 3; plant injury rating, Wibw (Wibw; 5.3808 kg/ha): 3; plant injury rating, Cotz (Cotz; 0.2803 kg/ha): 2; plant injury rating, Cotz (Cotz; 5.3808 kg/ha): 3; plant injury rating, Jiwe (Jiwe; 5.3808 kg/ha): 3; plant injury rating, Rape (Rape; 5.3808 kg/ha): 3"
"COC(=O)c1c(OC)nc(C(F)(F)F)c(C2SCCS2)c1CC(C)C [Compound 93, 3-pyridinecarboxylic acid, 5-(1,3-dithiolan-2-yl)-2-methoxy-4-(2-methylpropyl)-6-(trifluoromethyl)-, methyl ester]",0,0,2,–,0,3,3,1,3,3,0,0,2,0,0,0,2,2,3,3,"inhibition at 11200 g/ha (Annual Bluegrass): 75 to 100%; inhibition at 11200 g/ha (Indian Mustard): 75 to 100%; inhibition at 11200 g/ha (Seedling Johnsongrass): 75 to 100%; inhibition at 11200 g/ha (Wild Buckwheat): 75 to 100%; plant injury rating, Cobu (Cobu; 5.6050 kg/ha): 3; plant injury rating, Corn (Corn; 5.6050 kg/ha): 3; plant injury rating, Hese (Hese; 5.6050 kg/ha): 3; plant injury rating, Vele (Vele; 5.6050 kg/ha): 3; plant injury rating, Wibw (Wibw; 1.1210 kg/ha): 0; plant injury rating, Wibw (Wibw; 5.6050 kg/ha): 0; plant injury rating, Cotz (Cotz; 0.2803 kg/ha): 0; plant injury rating, Cotz (Cotz; 1.1210 kg/ha): 0; plant injury rating, Cotz (Cotz; 5.6050 kg/ha): 2; plant injury rating, Jiwe (Jiwe; 5.6050 kg/ha): 3; plant injury rating, Rape (Rape; 0.0701 kg/ha): 0; plant injury rating, Rape (Rape; 0.2803 kg/ha): 2; plant injury rating, Rape (Rape; 5.6050 kg/ha): 3"
"COC(=O)c1c(OC)nc(C(F)(F)F)c(C(=O)n2ccc(F)n2)c1C1CCC1 [Compound 140, 3-pyridinecarboxylic acid, 4-cyclobuty1-5-[(3-fluoro-1H-pyrazo1-1-yl)carbonyl]-2-methoxy-6-(trifluoromethyl)-, methyl ester]",–,1,3,–,–,2,1,–,3,3,–,3,2,–,0,–,–,–,–,3,"inhibition at 11200 g/ha (Annual Bluegrass): 75 to 100%; inhibition at 11200 g/ha (Indian Mustard): 75 to 100%; inhibition at 11200 g/ha (Seedling Johnsongrass): 75 to 100%; inhibition at 11200 g/ha (Wild Buckwheat): 75 to 100%; plant injury rating, Cobu (Cobu; 5.6050 kg/ha): 3; plant injury rating, Corn (Corn; 5.6050 kg/ha): 2; plant injury rating, Hese (Hese; 5.6050 kg/ha): 3; plant injury rating, Vele (Vele; 5.6050 kg/ha): 2; plant injury rating, Wibw (Wibw; 5.6050 kg/ha): 1; plant injury rating, Cotz (Cotz; 1.1210 kg/ha): 1; plant injury rating, Cotz (Cotz; 5.6050 kg/ha): 1; plant injury rating, Rape (Rape; 0.2803 kg/ha): 3; plant injury rating, Rape (Rape; 5.6050 kg/ha): 3"
